# Measurements published in patent US20250171498A1, “ANTIBIOTIC COMPOUNDS, FORMULATIONS AND METHODS OF USE” (UNIVERSITEIT LEIDEN, priority 2022, published 2025).
# *1 amine or outer side, *2 acyl side, *3 side chain or, on linkers, in order; H or OH if unused. Where a SMILES comes first, the peptide text is derived from it. Bridges are numbered along the chain shown (N, C = ends). [ ]: non-standard residue; d: D form. The star is where a group is joined. Phenylthio(4-OPh) = c1ccc(Oc2ccc(S*)cc2)cc1; X1 = CC(C)CCCCC[C@@H](N[*:1])C(=O)[*:2]; S(2-cyclohexylethyl) = C1CCC(CCS*)CC1; dPen = CC(C)(S)[C@@H](N)C(=O)O; X3 = O=C(OCCSSCc1cccc(Cl)c1)*; S(3-Methylbutyl) = CC(C)CCS*; X4 = c1ccc(-c2ccc(S*)cc2)cc1; dDab = NCC[C@@H](N)C(=O)O; dDap = NC[C@@H](N)C(=O)O; Dab = NCC[C@H](N)C(=O)O; X2 = CC(C)CCSSCCOC(=O)*; Dap = NC[C@H](N)C(=O)O; X5 = CC(C)CCCCS*; Mpa = O=C(O)CCS
# Columns and labels:
# Assay type in all cases: cell-based
# A. Baumanni (ATCC 19606) = settings: ATCC 19606
# Procedure: (§1) Compounds were prepared according to scheme 2, 3, 4, 6, 7, or 8 above, preparing different sets of compounds with different substitution patterns. All polymyxin analogues prepared were tested for their anti-bacterial activity on relevant Gram-negative strains (Table B). Polymyxin B and PMBN were taken along as references. In addition, the toxicity on renal Proximal Tubular Epithelial Cells (PTECs) was evaluated.
# (§2) 3rd Generation compounds were also subjected to testing for their anti-bacterial activity on relevant Gram-negative strains (Table C). Polymyxin B and PMBN were taken along as references. In addition, the toxicity on renal Proximal Tubular Epithelial Cells (PTECs) was evaluated, see Table C.
# E. Coli (ATCC 25922) = settings: ATCC 25922
# Procedure: as §1, §2
# [1] = test system: P. Aeruginosa (ATCC 27853); settings: ATCC 27853
# Procedure: as §1, §2
# [2] = test system: K. Pneumoniae (ATCC 13883); settings: ATCC 13883
# Procedure: as §1, §2
# [3] = test system: renal Proximal Tubular Epithelial Cells (PTECs); assay: Toxicity on renal Proximal Tubular Epithelial Cells
# Procedure: as §1, §2
MIC A. Baumanni (ATCC 19606) (A. Baumanni (ATCC 19606)),MIC E. Coli (ATCC 25922) (E. Coli (ATCC 25922)),MIC P. Aeruginosa (ATCC 27853) [1],MIC K. Pneumoniae (ATCC 13883) [2],SMILES,PTEC Toxicity (relative to polymyxin B) [3]
0.25 µg/mL,1 µg/mL,1 µg/mL,0.25 µg/mL,CC(C)CCCCC[C@@H](N)C(=O)N[C@H](C(=O)N[C@@H](CN)C(=O)N[C@H]1CCNC(=O)[C@H]([C@@H](C)O)NC(=O)[C@H](CCN)NC(=O)[C@H](CCN)NC(=O)[C@H](CC(C)C)NC(=O)[C@@H](Cc2ccccc2)NC(=O)[C@H](CCN)NC1=O)[C@@H](C)O (H-[X1]T[Dap][Dab][Dab][dF]L[Dab][Dab]T; lactam 4-C),7.8
0.5 µg/mL,2 µg/mL,2 µg/mL,1 µg/mL,CC(C)C[C@@H]1NC(=O)[C@@H](Cc2ccccc2)NC(=O)[C@H](CCN)NC(=O)[C@@H](NC(=O)CNC(=O)[C@@H](NC(=O)[C@H](N)CSSCCC2CCCCC2)[C@@H](C)O)CCNC(=O)[C@H]([C@@H](C)O)NC(=O)[C@H](CCN)NC(=O)[C@H](CCN)NC1=O (H-[dC](S(2-cyclohexylethyl))TG[Dab][Dab][dF]L[Dab][Dab]T; lactam 4-C),7.4
0.5 µg/mL,1 µg/mL,2 µg/mL,1 µg/mL,CC(C)C[C@@H]1NC(=O)[C@@H](Cc2ccccc2)NC(=O)[C@H](CCN)NC(=O)[C@@H](NC(=O)[C@H](CN)NC(=O)[C@@H](NC(=O)[C@H](N)CSSCCC2CCCCC2)[C@@H](C)O)CCNC(=O)[C@H]([C@@H](C)O)NC(=O)[C@H](CCN)NC(=O)[C@H](CCN)NC1=O (H-[dC](S(2-cyclohexylethyl))T[Dap][Dab][Dab][dF]L[Dab][Dab]T; lactam 4-C),2.9
0.5 µg/mL,2 µg/mL,2 µg/mL,1 µg/mL,CC(C)C[C@@H]1NC(=O)[C@@H](Cc2ccccc2)NC(=O)[C@H](CCN)NC(=O)[C@@H](NC(=O)[C@@H](CCN)NC(=O)[C@@H](NC(=O)[C@H](N)CSSCCC2CCCCC2)[C@@H](C)O)CCNC(=O)[C@H]([C@@H](C)O)NC(=O)[C@H](CCN)NC(=O)[C@H](CCN)NC1=O (H-[dC](S(2-cyclohexylethyl))T[dDab][Dab][Dab][dF]L[Dab][Dab]T; lactam 4-C),4.8
4 µg/mL,2 µg/mL,2 µg/mL,2 µg/mL,CC(C)CCSSC(C)(C)[C@@H](N)C(=O)N[C@H](C(=O)N[C@@H](CCN)C(=O)N[C@H]1CCNC(=O)[C@H]([C@@H](C)O)NC(=O)[C@H](CCN)NC(=O)[C@H](CCN)NC(=O)[C@H](CC(C)C)NC(=O)[C@@H](Cc2ccccc2)NC(=O)[C@H](CCN)NC1=O)[C@@H](C)O (H-[dPen](S(3-Methylbutyl))T[Dab][Dab][Dab][dF]L[Dab][Dab]T; lactam 4-C),–
4 µg/mL,2 µg/mL,2 µg/mL,2 µg/mL,CC(C)CCSSC(C)(C)[C@@H](N)C(=O)N[C@H](C(=O)N[C@@H](CCN)C(=O)N[C@H]1CCNC(=O)[C@H]([C@@H](C)O)NC(=O)[C@H](CCN)NC(=O)[C@H](CCN)NC(=O)[C@H](CC(C)C)NC(=O)[C@@H](CC(C)C)NC(=O)[C@H](CCN)NC1=O)[C@@H](C)O (H-[dPen](S(3-Methylbutyl))T[Dab][Dab][Dab][dL]L[Dab][Dab]T; lactam 4-C),–
1 µg/mL,2 µg/mL,2 µg/mL,1 µg/mL,CC(C)CCSSC(C)(C)[C@@H](N)C(=O)N[C@H](C(=O)N[C@@H](CN)C(=O)N[C@H]1CCNC(=O)[C@H]([C@@H](C)O)NC(=O)[C@H](CCN)NC(=O)[C@H](CCN)NC(=O)[C@H](CC(C)C)NC(=O)[C@@H](Cc2ccccc2)NC(=O)[C@H](CCN)NC1=O)[C@@H](C)O (H-[dPen](S(3-Methylbutyl))T[Dap][Dab][Dab][dF]L[Dab][Dab]T; lactam 4-C),–
2 µg/mL,2 µg/mL,2 µg/mL,1 µg/mL,CC(C)CCSSC(C)(C)[C@@H](N)C(=O)N[C@H](C(=O)N[C@@H](CN)C(=O)N[C@H]1CCNC(=O)[C@H]([C@@H](C)O)NC(=O)[C@H](CCN)NC(=O)[C@H](CCN)NC(=O)[C@H](CC(C)C)NC(=O)[C@@H](CC(C)C)NC(=O)[C@H](CCN)NC1=O)[C@@H](C)O (H-[dPen](S(3-Methylbutyl))T[Dap][Dab][Dab][dL]L[Dab][Dab]T; lactam 4-C),–
–,8 µg/mL,2 µg/mL,8 µg/mL,CC(C)CCSSCCOC(=O)N[C@H](C(=O)N[C@@H](CCN)C(=O)N[C@H]1CCNC(=O)[C@H]([C@@H](C)O)NC(=O)[C@H](CCN)NC(=O)[C@H](CCN)NC(=O)[C@H](CC(C)C)NC(=O)[C@@H](Cc2ccccc2)NC(=O)[C@H](CCN)NC1=O)[C@@H](C)O (X2-T[Dab][Dab][Dab][dF]L[Dab][Dab]T; lactam 3-C),0.9
–,4 µg/mL,2 µg/mL,2 µg/mL,CC(C)CCSSCCOC(=O)N[C@H](C(=O)N[C@H](CN)C(=O)N[C@H]1CCNC(=O)[C@H]([C@@H](C)O)NC(=O)[C@H](CCN)NC(=O)[C@H](CCN)NC(=O)[C@H](CC(C)C)NC(=O)[C@@H](Cc2ccccc2)NC(=O)[C@H](CCN)NC1=O)[C@@H](C)O (X2-T[dDap][Dab][Dab][dF]L[Dab][Dab]T; lactam 3-C),2.9
–,4 µg/mL,1 µg/mL,1 µg/mL,CC(C)C[C@@H]1NC(=O)[C@@H](Cc2ccccc2)NC(=O)[C@H](CCN)NC(=O)[C@@H](NC(=O)[C@H](CCN)NC(=O)[C@@H](NC(=O)OCCSSCc2cccc(Cl)c2)[C@@H](C)O)CCNC(=O)[C@H]([C@@H](C)O)NC(=O)[C@H](CCN)NC(=O)[C@H](CCN)NC1=O (X3-T[Dab][Dab][Dab][dF]L[Dab][Dab]T; lactam 3-C),1.3
–,8 µg/mL,4 µg/mL,4 µg/mL,CC(C)C[C@@H]1NC(=O)[C@@H](Cc2ccccc2)NC(=O)[C@H](CCN)NC(=O)[C@@H](NC(=O)[C@H](CN)NC(=O)[C@@H](NC(=O)OCCSSCc2cccc(Cl)c2)[C@@H](C)O)CCNC(=O)[C@H]([C@@H](C)O)NC(=O)[C@H](CCN)NC(=O)[C@H](CCN)NC1=O (X3-T[Dap][Dab][Dab][dF]L[Dab][Dab]T; lactam 3-C),0.8
–,8 µg/mL,2 µg/mL,2 µg/mL,CC(C)C[C@@H]1NC(=O)[C@@H](Cc2ccccc2)NC(=O)[C@H](CCN)NC(=O)[C@@H](NC(=O)[C@H](CCN)NC(=O)[C@@H](NC(=O)CCSSc2ccc(Oc3ccccc3)cc2)[C@@H](C)O)CCNC(=O)[C@H]([C@@H](C)O)NC(=O)[C@H](CCN)NC(=O)[C@H](CCN)NC1=O ([Mpa](Phenylthio(4-OPh))T[Dab][Dab][Dab][dF]L[Dab][Dab]T; lactam 4-C),–
–,4 µg/mL,2 µg/mL,2 µg/mL,CC(C)C[C@@H]1NC(=O)[C@@H](Cc2ccccc2)NC(=O)[C@H](CCN)NC(=O)[C@@H](NC(=O)[C@H](CCN)NC(=O)[C@@H](NC(=O)CCSSCCC2CCCCC2)[C@@H](C)O)CCNC(=O)[C@H]([C@@H](C)O)NC(=O)[C@H](CCN)NC(=O)[C@H](CCN)NC1=O ([Mpa](S(2-cyclohexylethyl))T[Dab][Dab][Dab][dF]L[Dab][Dab]T; lactam 4-C),–
–,8 µg/mL,4 µg/mL,2 µg/mL,CC(C)C[C@@H]1NC(=O)[C@@H](Cc2ccccc2)NC(=O)[C@H](CCN)NC(=O)[C@@H](NC(=O)[C@H](CCN)NC(=O)[C@@H](NC(=O)CCSSc2ccc(-c3ccccc3)cc2)[C@@H](C)O)CCNC(=O)[C@H]([C@@H](C)O)NC(=O)[C@H](CCN)NC(=O)[C@H](CCN)NC1=O ([Mpa](X4)T[Dab][Dab][Dab][dF]L[Dab][Dab]T; lactam 4-C),–
–,4 µg/mL,2 µg/mL,2 µg/mL,CC(C)CCCCSSCCC(=O)N[C@H](C(=O)N[C@@H](CCN)C(=O)N[C@H]1CCNC(=O)[C@H]([C@@H](C)O)NC(=O)[C@H](CCN)NC(=O)[C@H](CCN)NC(=O)[C@H](CC(C)C)NC(=O)[C@@H](Cc2ccccc2)NC(=O)[C@H](CCN)NC1=O)[C@@H](C)O ([Mpa](X5)T[Dab][Dab][Dab][dF]L[Dab][Dab]T; lactam 4-C),–
0.5 µg/mL,1 µg/mL,2 µg/mL,–,CC(C)C[C@@H]1NC(=O)[C@@H](Cc2ccccc2)NC(=O)[C@H](CCN)NC(=O)[C@@H](NC(=O)[C@H](CCN)NC(=O)[C@@H](NC(=O)[C@H](N)CSSCCC2CCCCC2)[C@@H](C)O)CCNC(=O)[C@H]([C@@H](C)O)NC(=O)[C@H](CCN)NC(=O)[C@H](CCN)NC1=O [drawing 128] (H-[dC](S(2-cyclohexylethyl))T[Dab][Dab][Dab][dF]L[Dab][Dab]T; lactam 4-C),1.2
